The values that follow come from patent US9926281B2 (priority 2014, dated 2018).

Where only a bound is given, the exact number is not on record here.

One experiment has as its target human TACE (Homo sapiens (Human), UniProt P78536). To be noted: read-out: TACE potency IC50.
The target of the next experiment is human ADAMTS-5 (Homo sapiens (Human), UniProt Q9UNA0). The settings on record: read-out: hADAMTS-5 potency IC50.
Sequence of human ADAMTS-5 (Q9UNA0 262-930): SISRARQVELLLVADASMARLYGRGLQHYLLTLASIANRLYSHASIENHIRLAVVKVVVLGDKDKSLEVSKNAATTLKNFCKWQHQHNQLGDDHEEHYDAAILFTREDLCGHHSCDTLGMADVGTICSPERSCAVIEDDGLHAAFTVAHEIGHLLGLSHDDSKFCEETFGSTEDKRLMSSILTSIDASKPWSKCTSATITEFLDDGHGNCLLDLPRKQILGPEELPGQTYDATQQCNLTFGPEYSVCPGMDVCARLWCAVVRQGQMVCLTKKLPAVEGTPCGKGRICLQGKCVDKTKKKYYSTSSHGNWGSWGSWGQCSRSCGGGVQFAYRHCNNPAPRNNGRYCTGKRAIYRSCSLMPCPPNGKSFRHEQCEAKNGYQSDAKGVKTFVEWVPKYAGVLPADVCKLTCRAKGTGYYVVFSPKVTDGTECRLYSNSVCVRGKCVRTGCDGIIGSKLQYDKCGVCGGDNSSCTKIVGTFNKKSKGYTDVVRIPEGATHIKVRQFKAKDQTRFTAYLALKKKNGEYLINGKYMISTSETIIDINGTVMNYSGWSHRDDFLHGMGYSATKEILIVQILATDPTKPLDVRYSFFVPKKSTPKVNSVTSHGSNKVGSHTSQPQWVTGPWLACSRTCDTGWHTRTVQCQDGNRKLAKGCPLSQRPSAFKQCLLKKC

Sequence of human TACE (P78536 whole entry, looked up, change not shown): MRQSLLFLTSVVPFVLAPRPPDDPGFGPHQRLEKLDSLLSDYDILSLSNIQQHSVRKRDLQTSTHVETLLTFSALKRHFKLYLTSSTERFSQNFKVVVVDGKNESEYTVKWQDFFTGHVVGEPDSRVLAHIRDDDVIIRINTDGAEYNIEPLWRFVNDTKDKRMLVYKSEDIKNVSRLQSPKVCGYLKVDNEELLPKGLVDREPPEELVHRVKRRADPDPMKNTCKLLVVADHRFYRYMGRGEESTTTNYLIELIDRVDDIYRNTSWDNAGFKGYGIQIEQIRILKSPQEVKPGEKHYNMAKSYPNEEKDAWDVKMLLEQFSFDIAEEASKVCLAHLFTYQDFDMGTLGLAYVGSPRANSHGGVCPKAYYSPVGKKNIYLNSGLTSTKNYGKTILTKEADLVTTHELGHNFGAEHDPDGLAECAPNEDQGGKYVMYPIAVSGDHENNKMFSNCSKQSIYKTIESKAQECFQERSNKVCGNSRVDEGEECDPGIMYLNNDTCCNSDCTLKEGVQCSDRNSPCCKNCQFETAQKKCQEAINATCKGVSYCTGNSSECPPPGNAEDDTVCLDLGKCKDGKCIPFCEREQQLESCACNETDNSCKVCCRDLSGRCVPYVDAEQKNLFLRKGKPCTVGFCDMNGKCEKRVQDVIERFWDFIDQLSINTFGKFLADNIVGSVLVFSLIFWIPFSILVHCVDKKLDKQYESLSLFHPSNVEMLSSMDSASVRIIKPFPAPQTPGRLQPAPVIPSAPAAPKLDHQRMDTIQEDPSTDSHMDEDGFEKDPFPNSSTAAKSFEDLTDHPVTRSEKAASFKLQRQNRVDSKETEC
Procedure for human ADAMTS-5: Finally, the fluorescence is read on the Envision (Perkin Elmer) after an incubation of 90 min at 37° C.

Usually IC50 stands for the concentration needed to halve the response being measured. In the case of `C[C@H]1CN(C(=O)CCC2(C3CC3)NC(=O)NC2=O)CCN1c1cccc2ccoc12` (stereo partly drawn) [compound 280, 5-[3-[(3S)-4-(benzofuran-7-yl)-3-methyl-piperazin-1-yl]-3-oxo-propyl]-5-cyclopropyl-imidazolidine-2,4-dione], the figures for the IC50 at human TACE and at human ADAMTS-5 were more than 20000 nM and 275 nM, respectively.
The matching figures for `C[C@H]1CN(C(=O)CCC2(C3CC3)NC(=O)NC2=O)CCN1c1cccc(-c2cnn(C)c2)c1` (stereo partly drawn) [compound 283, 5-cyclopropyl-5-[3-[(3S)-3-methyl-4-[3-(1-methylpyrazol-4-yl)phenyl]piperazin-1-yl]-3-oxo-propyl]imidazolidine-2,4-dione]: more than 20000 nM and 1080 nM.
The corresponding values for `C[C@H]1CN(C(=O)CCC2(C3CC3)NC(=O)NC2=O)CCN1c1nccc(Cl)n1` (stereo partly drawn) [compound 284, 5-[3-[(3S)-4-(4-chloropyrimidin-2-yl)-3-methyl-piperazin-1-yl]-3-oxo-propyl]-5-cyclopropyl-imidazolidine-2,4-dione] are more than 20000 nM and more than 12000 nM.
The matching figures for `C[C@H]1CN(C(=O)CCC2(C3CC3)NC(=O)NC2=O)CCN1c1ccc(Cl)nn1` (stereo partly drawn) [compound 285, 5-[3-[(3S)-4-(6-chloropyridazin-3-yl)-3-methyl-piperazin-1-yl]-3-oxo-propyl]-5-cyclopropyl-imidazolidine-2,4-dione]: more than 4000 nM and 892 nM.
For the compound `C[C@H]1CN(C(=O)CCC2(C3CC3)NC(=O)NC2=O)CCN1c1cnccn1` (stereo partly drawn) [compound 286, 5-cyclopropyl-5-[3-[(3S)-3-methyl-4-pyrazin-2-yl-piperazin-1-yl]-3-oxo-propyl]imidazolidine-2,4-dione], the IC50 is more than 20000 nM on human TACE and more than 4000 nM at human ADAMTS-5.
The corresponding values for `C[C@H]1CN(C(=O)CCC2(C3CC3)NC(=O)NC2=O)CCN1c1cnc2ccccc2c1` (stereo partly drawn) [compound 289, 5-cyclopropyl-5-[3-[(3S)-3-methyl-4-(3-quinolyl)piperazin-1-yl]-3-oxo-propyl]imidazolidine-2,4-dione] are more than 4000 nM and 97 nM.
`COCC(CC1(C)NC(=O)NC1=O)C(=O)N1CCN(c2cccc(F)c2)[C@@H](C)C1` (stereo partly drawn) [compound 292, 5-[3-[(3S)-4-(3-fluorophenyl)-3-methyl-piperazin-1-yl]-2-(methoxymethyl)-3-oxo-propyl]-5-methyl-imidazolidine-2,4-dione]: the IC50 on human TACE is more than 4000 nM; at human ADAMTS-5 it was 48 nM.
The matching figures for `C[C@H]1CN(C(=O)CCC2(C3CC3)NC(=O)NC2=O)CCN1c1ccc2[nH]ncc2c1` (stereo partly drawn) [compound 296, 5-cyclopropyl-5-[3-[(3S)-4-(1H-indazol-5-yl)-3-methyl-piperazin-1-yl]-3-oxo-propyl]imidazolidine-2,4-dione]: more than 20000 nM and more than 4000 nM.
The corresponding values for `C[C@H]1CN(C(=O)CCC2(C3CC3)NC(=O)NC2=O)CCN1c1ccc2c(cnn2C)c1` (stereo partly drawn) [compound 297, 5-cyclopropyl-5-[3-[(3S)-3-methyl-4-(1-methylindazol-5-yl)piperazin-1-yl]-3-oxo-propyl]imidazolidine-2,4-dione] are more than 20000 nM and more than 3620 nM.
Take `Cc1cc(N2CCN(C(=O)CCC3(C4CC4)NC(=O)NC3=O)C[C@@H]2C)ccc1F` (stereo partly drawn) [compound 298, 5-cyclopropyl-5-[3-[(3S)-4-(4-fluoro-3-methyl-phenyl)-3-methyl-piperazin-1-yl]-3-oxo-propyl]imidazolidine-2,4-dione]: the IC50 is more than 20000 nM at human TACE and 192 nM at human ADAMTS-5.
The matching figures for `Cc1ccc(N2CCN(C(=O)CCC3(C4CC4)NC(=O)NC3=O)C[C@@H]2C)cc1F` (stereo partly drawn) [compound 299, 5-cyclopropyl-5-[3-[(3S)-4-(3-fluoro-4-methyl-phenyl)-3-methyl-piperazin-1-yl]-3-oxo-propyl]imidazolidine-2,4-dione]: more than 20000 nM and 114 nM.
The corresponding values for `C[C@H]1CN(C(=O)CCC2(C3CC3)NC(=O)NC2=O)CCN1c1ccc(F)cc1` (stereo partly drawn) [compound 300, 5-cyclopropyl-5-[3-[(3S)-4-(4-fluorophenyl)-3-methyl-piperazin-1-yl]-3-oxo-propyl]imidazolidine-2,4-dione] are more than 20000 nM and 140 nM.
The corresponding values for `C[C@H]1CN(C(=O)CCC2(C3CC3)NC(=O)NC2=O)CCN1c1ccnc(Cl)n1` (stereo partly drawn) [compound 301, 5-[3-[(3S)-4-(2-chloropyrimidin-4-yl)-3-methyl-piperazin-1-yl]-3-oxo-propyl]-5-cyclopropyl-imidazolidine-2,4-dione] are more than 20000 nM and more than 20000 nM.
On to `Cc1cncc(N2CCN(C(=O)CCC3(C4CC4)NC(=O)NC3=O)C[C@@H]2C)c1` (stereo partly drawn) [compound 303, 5-cyclopropyl-5-[3-[(3S)-3-methyl-4-(5-methyl-3-pyridyl)piperazin-1-yl]-3-oxo-propyl]imidazolidine-2,4-dione], for which the IC50 on human TACE was more than 20000 nM; on human ADAMTS-5 it was 266 nM.
The matching figures for `C[C@H]1CN(C(=O)CCC2(C3CC3)NC(=O)NC2=O)CCN1c1cncnc1` (stereo partly drawn) [compound 304, 5-cyclopropyl-5-[3-[(3S)-3-methyl-4-pyrimidin-5-yl-piperazin-1-yl]-3-oxo-propyl]imidazolidine-2,4-dione]: more than 20000 nM and more than 4000 nM.
Regarding `Cc1ccc(N2CCN(C(=O)CCC3(C4CC4)NC(=O)NC3=O)C[C@@H]2C)cc1Cl` (stereo partly drawn) [compound 306, 5-[3-[(3S)-4-(3-chloro-4-methyl-phenyl)-3-methyl-piperazin-1-yl]-3-oxo-propyl]-5-cyclopropyl-imidazolidine-2,4-dione], the IC50 is more than 4000 nM on human TACE and 67 nM on human ADAMTS-5.
The matching figures for `Cc1cccc(C2(CCC(=O)N3CCN(c4cc(Cl)cc(Cl)c4)[C@@H](C)C3)NC(=O)NC2=O)n1` (stereo partly drawn) [compound 310, 5-[3-[(3S)-4-(3,5-dichlorophenyl)-3-methyl-piperazin-1-yl]-3-oxo-propyl]-5-(6-methyl-2-pyridyl)imidazolidine-2,4-dione]: 1320 nM and 50 nM.
The matching figures for `Cc1cccc(C2(CCC(=O)N3CCN(c4cccc(Cl)c4)[C@@H](C)C3)NC(=O)NC2=O)n1` (stereo partly drawn) [compound 311, 5-[3-[(3S)-4-(3-chlorophenyl)-3-methyl-piperazin-1-yl]-3-oxo-propyl]-5-(6-methyl-2-pyridyl)imidazolidine-2,4-dione]: 3070 nM and 57 nM.
The matching figures for `Cc1cccc(C2(CCC(=O)N3CCN(c4ccc(Cl)cc4)[C@@H](C)C3)NC(=O)NC2=O)n1` (stereo partly drawn) [compound 312, 5-[3-[(3S)-4-(4-chlorophenyl)-3-methyl-piperazin-1-yl]-3-oxo-propyl]-5-(6-methyl-2-pyridyl)imidazolidine-2,4-dione]: 3680 nM and 40 nM.
As for `C[C@H]1CN(C(=O)CCC2(c3cccnc3)NC(=O)NC2=O)CCN1c1ccc(Cl)c(F)c1` (stereo partly drawn) [compound 315, 5-[3-[(3S)-4-(4-chloro-3-fluoro-phenyl)-3-methyl-piperazin-1-yl]-3-oxo-propyl]-5-(3-pyridyl)imidazolidine-2,4-dione], the IC50 on human TACE was more than 4000 nM; on human ADAMTS-5 it was 42 nM.
The corresponding values for `C[C@H]1CN(C(=O)CCC2(c3cccnc3)NC(=O)NC2=O)CCN1c1cc(Cl)cc(Cl)c1` (stereo partly drawn) [compound 318, 5-[3-[(3S)-4-(3,5-dichlorophenyl)-3-methyl-piperazin-1-yl]-3-oxo-propyl]-5-(3-pyridyl)imidazolidine-2,4-dione] are 2190 nM and 59 nM.
In the case of `C[C@H]1CN(C(=O)CCC2(C3CC3)NC(=O)NC2=O)CCN1c1cccc(-c2cncc(Cl)c2)c1` (stereo partly drawn) [compound 322, 5-[3-[(3S)-4-[3-(5-chloro-3-pyridyl)phenyl]-3-methyl-piperazin-1-yl]-3-oxo-propyl]-5-cyclopropyl-imidazolidine-2,4-dione], the IC50 is more than 4000 nM on human TACE and 237 nM on human ADAMTS-5.
As for `Cc1ncccc1-c1cccc(N2CCN(C(=O)CCC3(C4CC4)NC(=O)NC3=O)C[C@@H]2C)c1` (stereo partly drawn) [compound 323, 5-cyclopropyl-5-[3-[(3S)-3-methyl-4-[3-(2-methyl-3-pyridyl)phenyl]piperazin-1-yl]-3-oxo-propyl]imidazolidine-2,4-dione], the IC50 at human TACE was more than 4000 nM; on human ADAMTS-5, 1240 nM.
The corresponding values for `Cc1ccc(-c2cccc(N3CCN(C(=O)CCC4(C5CC5)NC(=O)NC4=O)C[C@@H]3C)c2)cn1` (stereo partly drawn) [compound 324, 5-cyclopropyl-5-[3-[(3S)-3-methyl-4-[3-(6-methyl-3-pyridyl)phenyl]piperazin-1-yl]-3-oxo-propyl]imidazolidine-2,4-dione] are more than 4000 nM and 407 nM.
The corresponding values for `C[C@H]1CN(C(=O)CCC2(C3CC3)NC(=O)NC2=O)CCN1c1cc(Cl)ccn1` (stereo partly drawn) [compound 325, 5-[3-[(3S)-4-(4-chloro-2-pyridyl)-3-methyl-piperazin-1-yl]-3-oxo-propyl]-5-cyclopropyl-imidazolidine-2,4-dione] are more than 20000 nM and 796 nM.
The corresponding values for `C[C@H]1CN(C(=O)CCC2(C3CC3)NC(=O)NC2=O)CCN1c1cccc2c1ccn2C` (stereo partly drawn) [compound 328, 5-cyclopropyl-5-[3-[(3S)-3-methyl-4-(1-methylindol-4-yl)piperazin-1-yl]-3-oxo-propyl]imidazolidine-2,4-dione] are more than 20000 nM and more than 4000 nM.
Turning to `Cc1cc(-c2cccc(N3CCN(C(=O)CCC4(C5CC5)NC(=O)NC4=O)C[C@@H]3C)c2)ccn1` (stereo partly drawn) [compound 329, 5-cyclopropyl-5-[3-[(3S)-3-methyl-4-[3-(2-methyl-4-pyridyl)phenyl]piperazin-1-yl]-3-oxo-propyl]imidazolidine-2,4-dione], the IC50 on human TACE is more than 20000 nM; at human ADAMTS-5, 134 nM.
The matching figures for `C[C@H]1CN(C(=O)CCC2(C3CC3)NC(=O)NC2=O)CCN1c1cncc(C#N)c1` (stereo partly drawn) [compound 330, 5-[(2S)-4-[3-(4-cyclopropyl-2,5-dioxo-imidazolidin-4-yl)propanoyl]-2-methyl-piperazin-1-yl]pyridine-3-carbonitrile]: more than 20000 nM and more than 4000 nM.
